According to patent publication US10065990B2, “Cyclic peptide compound, and preparation method, pharmaceutical composition and use thereof” (HANGZHOU GUANYU BIO-MEDICAL CO., LTD, priority 2013, dated 2018):
Read-outs that look alike come from different tables or passages of the source.

Key:
[1] = tested on: A549 (human lung cancer cells); assay: MTT cancer cell growth inhibition; type: cell-based; details: Homo sapiens, A549, 72 h, MTT, 72 hours incubation, read-out: GI50 A54
How it was run: (§1)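 Cells grown in DMEM or RPMI 1640 with 10% FBS were seeded at 1500/well and left overnight at 37° C., 5% CO2. Compounds at final 10^−5 to 10^−10 M were added in triplicate for 72 h. MTT was then added for 4 h, formazan dissolved in DMSO, and absorbance read at 570 nm to derive GI50.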

[2] = tested on: Bel-7402 (human hepatoma cells); assay: MTT cancer cell growth inhibition; type: cell-based; details: Homo sapiens, Bel-7402, 72 h, MTT, 72 hours incubation, Bel-7402 cells; read-out: GI50 Bel-7402
How it was run: as §1

[3] = tested on: DU145 (human prostate cancer cells); assay: MTT cancer cell growth inhibition; type: cell-based; details: Homo sapiens, DU-145, 72 h, MTT, 72 hours incubation, read-out: GI50 Du1
How it was run: as §1

[4] = tested on: H1975 (non-small cell lung adenocarcinoma); assay: MTT cancer cell growth inhibition; type: cell-based; details: Homo sapiens, NCI-H1975, 72 h, MTT, 72 hours incubation, H1975 cells; read-out: GI50 H1975
How it was run: as §1

[5] = tested on: HCC827 (human non-small cell lung cancer cells); assay: MTT cancer cell growth inhibition; type: cell-based; details: Homo sapiens, HCC827, 72 h, MTT, 72 hours incubation, HCC827 cells; read-out: GI50 HCC827
How it was run: as §1

[6] = tested on: HT1080 (human fibrosarcoma cells); assay: MTT cancer cell growth inhibition; type: cell-based; details: Homo sapiens, HT-1080, 72 h, MTT, 72 hours incubation, read-out: GI50 HT1
How it was run: as §1

[7] = tested on: Hela (human cervical cancer cells); assay: MTT cancer cell growth inhibition; type: cell-based; details: Homo sapiens, HeLa, 72 h, MTT, 72 hours incubation, read-out: GI50 Hela
How it was run: as §1

[8] = tested on: Huh-7 (human hepatoma cells); assay: MTT cancer cell growth inhibition; type: cell-based; details: Homo sapiens, Huh-7, 72 h, MTT, 72 hours incubation, Huh-7 cells; read-out: GI50 Huh-7
How it was run: as §1

[9] = tested on: K562 (human leukemia cells); assay: MTT cancer cell growth inhibition; type: cell-based; details: Homo sapiens, K562, 72 h, MTT, 72 hours incubation, K562 cells; read-out: GI50 K562
How it was run: as §1

[10] = tested on: KBM-5 (human chronic myelogenous leukemia); assay: MTT cancer cell growth inhibition; type: cell-based; details: Homo sapiens, KBM5, 72 h, MTT, 72 hours incubation, KBM-5 cells; read-out: GI50 KBM-5
How it was run: as §1

[11] = tested on: KBM5-T315I (human chronic myelogenous leukemia); assay: MTT cancer cell growth inhibition; type: cell-based; details: Homo sapiens, 72 h, MTT, 72 hours incubation, KBM5-T315I cells; read-out: GI50 KBM5-T315I
How it was run: as §1

[12] = tested on: MCF-7 (human breast cancer cells); assay: MTT cancer cell growth inhibition; type: cell-based; details: Homo sapiens, MCF7, 72 h, 72 hours incubation, read-out: GI50 MCF
How it was run: as §1

[13] = tested on: MDA-MB-231 (breast cancer cells); assay: MTT cancer cell growth inhibition; type: cell-based; details: Homo sapiens, MDA-MB-231, 72 h, read-out: GI50 MDA-MB-231, MTT, 72 hours incubation, MDA-MB-231 cells
How it was run: as §1

[14] = tested on: MOLT-4 (human acute lymphoblastic leukemia cells); assay: MTT cancer cell growth inhibition; type: cell-based; details: Homo sapiens, MOLT-4, 72 h, MTT, 72 hours incubation, read-out: GI50 Mol
How it was run: as §1

[15] = tested on: N-87 (human gastric cancer cells); assay: MTT cancer cell growth inhibition; type: cell-based; details: Homo sapiens, 72 h, MTT, 72 hours incubation, N-87 cells; read-out: GI50 N-87
How it was run: as §1

[16] = tested on: SGC-7901 (human gastric cancer cells); assay: MTT cancer cell growth inhibition; type: cell-based; details: Homo sapiens, SGC-7901, 72 h, MTT, 72 hours incubation, SGC-7901 cells; read-out: GI50 SGC-7901
How it was run: as §1

[17] = tested on: U937 (human leukemia cells); assay: MTT cancer cell growth inhibition; type: cell-based; details: Homo sapiens, U-937, 72 h, MTT, 72 hours incubation, read-out: GI50 U93
How it was run: as §1

[18] = tested on: lncap (prostate cancer cells); assay: MTT cancer cell growth inhibition; type: cell-based; details: Homo sapiens, LNCaP, 72 h, MTT, 72 hours incubation, read-out: GI50 lnca
How it was run: as §1

[19] = target: HDAC3 (Homo sapiens, UniProt O15379); assay: HDAC biochemical activity measurement (fluorescent substrate deacetylation);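 further: fluorogenic acetyl-lysine substrate (20 µM) deacetylated by HDAC3, then developer added for 15 min at room temperature, release of fluorophore read at excitation 360 nm, emission 460 nm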
HDAC3, sequence (O15379 whole entry, species assumed): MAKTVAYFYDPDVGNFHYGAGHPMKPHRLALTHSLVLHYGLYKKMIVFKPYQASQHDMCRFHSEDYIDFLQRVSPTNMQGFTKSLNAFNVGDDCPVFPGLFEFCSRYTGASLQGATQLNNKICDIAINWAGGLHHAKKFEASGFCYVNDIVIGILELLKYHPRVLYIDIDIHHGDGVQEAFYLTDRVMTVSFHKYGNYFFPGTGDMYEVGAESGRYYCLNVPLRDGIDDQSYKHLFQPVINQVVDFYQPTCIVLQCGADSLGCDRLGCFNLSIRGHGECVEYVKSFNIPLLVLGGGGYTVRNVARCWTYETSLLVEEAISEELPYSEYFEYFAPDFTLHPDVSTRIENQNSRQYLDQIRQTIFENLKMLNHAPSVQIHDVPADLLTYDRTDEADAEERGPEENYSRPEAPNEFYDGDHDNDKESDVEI
HDAC3, sequence (Q9Y618 395-489 partner limits assumed, species assumed): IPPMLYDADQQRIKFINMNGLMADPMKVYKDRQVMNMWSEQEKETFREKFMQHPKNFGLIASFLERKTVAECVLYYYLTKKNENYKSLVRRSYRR

[20] = target: T1, HDAC11 (Homo sapiens, UniProt Q96DB2); assay: as above;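 further: HDAC11 enzyme acting on an acetyl-lysine fluorogenic substrate, then a developer frees the fluorophore, read at excitation 360 nm and emission 460 nm, IC50 over a compound dilution series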
T1 sequence (Q96DB2 1-347): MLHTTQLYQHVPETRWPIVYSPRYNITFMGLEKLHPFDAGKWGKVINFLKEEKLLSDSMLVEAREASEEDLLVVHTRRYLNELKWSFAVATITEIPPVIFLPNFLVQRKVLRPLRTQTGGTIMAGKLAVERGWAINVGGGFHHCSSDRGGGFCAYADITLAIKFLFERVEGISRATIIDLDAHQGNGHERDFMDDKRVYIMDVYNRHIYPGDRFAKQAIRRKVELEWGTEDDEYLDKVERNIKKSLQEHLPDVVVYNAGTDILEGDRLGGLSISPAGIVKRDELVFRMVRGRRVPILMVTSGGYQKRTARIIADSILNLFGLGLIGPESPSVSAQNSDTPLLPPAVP

[21] = target: HDAC1 (Homo sapiens, UniProt Q13547); assay: as above
HDAC1, sequence (Q13547 whole entry, species assumed): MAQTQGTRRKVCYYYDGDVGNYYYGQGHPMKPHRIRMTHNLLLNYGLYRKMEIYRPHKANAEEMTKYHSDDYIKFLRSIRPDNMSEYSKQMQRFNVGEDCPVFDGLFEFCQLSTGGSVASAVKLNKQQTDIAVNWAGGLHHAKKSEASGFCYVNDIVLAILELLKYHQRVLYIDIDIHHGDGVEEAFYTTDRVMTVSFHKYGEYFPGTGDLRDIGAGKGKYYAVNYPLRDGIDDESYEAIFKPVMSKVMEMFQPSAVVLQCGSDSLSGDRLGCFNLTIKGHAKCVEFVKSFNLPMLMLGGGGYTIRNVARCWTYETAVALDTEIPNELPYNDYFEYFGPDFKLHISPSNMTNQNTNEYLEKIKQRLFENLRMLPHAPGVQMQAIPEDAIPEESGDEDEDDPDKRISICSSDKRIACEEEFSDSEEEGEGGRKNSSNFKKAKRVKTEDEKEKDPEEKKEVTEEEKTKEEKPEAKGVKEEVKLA

[22] = HDAC1, 37° C. 30 minutes, read-out: IC50 HDAC1
[23] = Table 3, column C, read-out: IC50 HDAC1, C (six-membered ring with substituents)
[24] = read-out: IC50 HDAC3, HDAC3, 37° C. 30 minutes
[25] = read-out: IC50 HDAC11, HDAC11, 37° C. 30 minutes
[26] = Table 3, read-out: IC50 HDAC1, D (non-substituent)
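Wherever IC50 HDAC1 is given: fluorogenic acetyl-lysine substrate (20 µM) deacetylated by HDAC1, then developer releases fluorophore read at 360 nm excitation and 460 nm emission, inhibitor incubated 30 min at 37 °C.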
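Wherever IC50 HDAC1, C (six-membered ring with substituents) is given: fluorogenic acetyl-lysine substrate (20 µM) deacetylated by HDAC1, then developer releases fluorophore read at 360 nm excitation and 460 nm emission, inhibitor incubated 30 min at 37 °C.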
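Wherever IC50 HDAC1, D (non-substituent) is given: fluorogenic acetyl-lysine substrate (20 µM) deacetylated by HDAC1, then developer releases fluorophore read at 360 nm excitation and 460 nm emission, inhibitor incubated 30 min at 37 °C.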

| GI50 [1] [µM] | GI50 [2] [µM] | GI50 [3] [µM] | GI50 [4] [µM] | GI50 [5] [µM] | GI50 [6] [µM] | GI50 [7] [µM] | GI50 [8] [µM] | GI50 [9] [µM] | GI50 [10] [µM] | GI50 [11] [µM] | GI50 [12] [µM] | GI50 [13] [µM] | GI50 [14] [µM] | GI50 [15] [µM] | GI50 [16] [µM] | GI50 [17] [µM] | GI50 [18] [µM] | IC50 [19] [µM] | IC50 [21, 22] [µM] | Compound | also measured |
| --- | --- | --- | --- | --- | --- | --- | --- | --- | --- | --- | --- | --- | --- | --- | --- | --- | --- | --- | --- | --- | --- |
| 0.03 | 0.084 | 0.03 | 0.034 | 0.084 | 0.08 | 0.04 | 0.033 | 0.039 | 0.046 | 0.026 | 0.02 | 0.033 | 0.03 | 0.051 | 0.037 | 0.03 | 0.03 | 0.028 |  | C/C=C1\NC(=O)c2cc(C)cc(n2)CNC(=O)C[C@@H](/C=C/CCSC(C)=O)OC(=O)[C@H](Cc2ccccc2)NC1=O [Example 67] | IC50 [20]: 0.092 µM |
| 0.02 | 0.067 | 0.03 | 0.053 | 0.067 | 0.06 | 0.07 | 0.038 | 0.034 | 0.071 | 0.024 | 0.02 | 0.038 | 0.03 | 0.031 | 0.029 | 0.05 | 0.03 |  | 0.031 | CC(=O)SCC/C=C/[C@@H]1CC(=O)NCc2cc(F)cc(n2)C(=O)NC(=C(C)C)C(=O)N[C@@H](C(C)C)C(=O)O1 [Compound 88] | IC50 [21, 23]: 0.031 µM; IC50 [19, 24]: 0.041 µM; IC50 [20, 25]: 0.094 µM |
| 0.05 | 0.091 | 0.02 | 0.061 | 0.091 | 0.09 | 0.07 | 0.031 | 0.027 | 0.076 | 0.028 | 0.02 | 0.031 | 0.03 | 0.022 | 0.051 | 0.06 | 0.03 | 0.027 | 0.057 | C/C=C1\NC(=O)c2cc(F)cc(n2)CNC(=O)C[C@@H](/C=C/CCSC(C)=O)OC(=O)[C@H](Cc2cccc3ccccc23)NC1=O [Example 79] | IC50 [20]: 0.093 µM |
| 0.04 | 0.073 | 0.03 | 0.055 | 0.073 | 0.07 | 0.05 | 0.028 | 0.035 | 0.051 | 0.026 | 0.02 | 0.028 | 0.02 | 0.019 | 0.043 | 0.05 | 0.02 |  | 0.042 | C=C1NC(=O)c2nc(ccc2F)CNC(=O)C[C@@H](/C=C/CCSC(C)=O)OC(=O)[C@H](C(C)C)NC1=O [Compound 84] | IC50 [21, 23]: 0.042 µM; IC50 [19, 24]: 0.029 µM; IC50 [20, 25]: 0.091 µM |
| 0.06 | 0.072 | 0.04 | 0.063 | 0.072 | 0.07 | 0.06 | 0.029 | 0.046 | 0.061 | 0.019 | 0.01 | 0.029 | 0.02 | 0.061 | 0.062 | 0.06 | 0.02 |  | 0.063 | C/C=C1\NC(=O)c2nc(ccc2F)CNC(=O)C[C@@H](/C=C/CCSC(C)=O)OC(=O)[C@H](Cc2cccc3ccccc23)NC1=O [Compound 78] | IC50 [21, 23]: 0.063 µM; IC50 [19, 24]: 0.038 µM; IC50 [20, 25]: 0.094 µM |
| 0.05 | 0.097 |  | 0.029 | 0.033 | 0.06 | 0.05 | 0.043 | 0.037 | 0.073 | 0.034 | 0.03 | 0.091 |  | 0.043 | 0.028 |  |  | 0.145 | 0.171 | C/C=C1\NC(=O)c2cccc(n2)CNC(=O)C[C@@H](/C=C/CCSC(=O)CCCCC)OC(=O)[C@H](C(C)C)NC1=O [Compound 3] | IC50 [21, 26]: 0.171 µM; IC50 [20]: 0.1 µM |
|  | 0.022 |  | 0.036 | 0.027 |  |  | 0.071 | 0.053 | 0.013 | 0.012 |  | 0.048 |  | 0.083 | 0.023 |  |  | 0.037 |  | C/C=C1\NC(=O)c2ccc(SC)c(n2)CNC(=O)C[C@@H](/C=C/CCSC(=O)CCCCCCC)OC(=O)[C@H](CC)NC1=O [Compound 173] | GI50 ([1]; A549 cells): 0.06 µM; GI50 ([3]; DU145 cells): 0.06 µM; GI50 ([6]; HT1080 cells): 0.07 µM; GI50 ([7]; Hela cells): 0.06 µM; GI50 ([12]; MCF-7 cells): 0.02 µM; GI50 ([14]; MOLT-4 cells): 0.03 µM; GI50 ([17]; U937 cells): 0.01 µM; GI50 ([18]; lncap cells): 0.04 µM; IC50 [20]: 0.097 µM |
| 0.04 | 0.083 |  | 0.034 | 0.042 | 0.05 | 0.03 | 0.073 | 0.051 | 0.051 | 0.029 | 0.03 | 0.092 |  | 0.029 | 0.026 |  |  |  | 0.192 | C/C=C1\NC(=O)c2cccc(n2)CNC(=O)C[C@@H](/C=C/CCSC(=O)CCCCCC)OC(=O)[C@H](C(C)C)NC1=O [Compound 2] | IC50 [21, 26]: 0.192 µM; IC50 [19, 24]: 0.177 µM; IC50 [20, 25]: 0.102 µM |
